Results published in paper PMC9964404, “Molecular Modeling and In Vitro Evaluation of Piplartine Analogs against Oral Squamous Cell Carcinoma” (Molecules, 2023).
Like-named read-outs stand apart in the source and are kept apart here.

Key:
SCC9 cells = assay: MTT cell viability (cytotoxicity) assay, SCC9; assay type: cell-based, human
Method: (§1) SCC cells (SCC9 and SCC4), derived from human tongue OSCC, were obtained by (ATCC® CRL-1629 and CRL-1624) and maintained in DMEM/F12 1:1 medium (Dulbecco’s modified Eagle’s medium and Ham’s F12 medium, Gibco (Thermo Fisher, Waltham, MA, USA), supplemented with 10% (v/v) FBS (Fetal Bovine Serum; Invitrogen, Thermo Fisher, Waltham, MA, USA) and 400 ng/mL hydrocortisone (Sigma-AldrichCo., St. Louis, MO, USA). Primary normal gingival fibroblast human (PCS201 018TM) and other tumor cells B16-F10 (CRL-6475), Hep G2 (HB-8065), and HT-29 (HTB-38) were also obtained at ATCC and maintained in DMEM supplemented with 10% (v/v) FCS. Cells were cultured in a humidified environment containing 5% CO2 at 37 °C. For all experiments, the compounds were solubilized in DMSO (Sigma-Aldrich) for a final concentration of 100 mM. From this dilution, other concentrations were made to carry out the cell viability assay. Carboplatin (Fauldcarbo®; Libbs Farmacêutica, São Paulo, SP, Brazil) was used as a control antitumor compound.
(§2) The viability of cancer cells and primary fibroblasts was tested using the MTT assay as described in MACHADO et al., 2021 [49]. Briefly, cancer cells (5 × 10^3 cells/well) were plated in duplicate in a 96-well plate, as indicated. DMSO was diluted in culture medium at the same concentrations and was used as a negative control, representing 100% cell viability. After 48 h of treatment, cells were incubated for 3.5 h with 5 mg/mL of MTT reagent (3,4,5-dimethiazol-2,5-diphenyltetrazoliumbromide) (Sigma-Aldrich Co., St. Louis, MO, USA) diluted in culture medium. Subsequently, the formazan crystals were dissolved by MTT solvent (50% Methanol and 50% DMSO), and the absorbance was read at 560 nm using the EPOCH microplate spectrophotometer (BioTekInstruments, Winooski, VT, USA).
(§3) IC50 values for the MTT assay were obtained by non-linear regression using GraphPad Prism 5.0 software (GraphPad, San Diego, CA, USA) from at least three independent experiments. Data are presented as means, ± standard deviation (SD). A log dose response (inhibitor) vs. response curve using the least square method was used to determine the IC50 and SD of the data. The selectivity index was calculated as: S.I. = IC50 of the compound in fibroblasts/IC50 of the same compound in tumor cells.

[1] = tested on: Primary Gingival Fibroblast; assay: MTT cell viability assay, normal fibroblasts; assay type: cell-based, human; settings: 48 h treatment
Method: as §1, §2, §3

SCC4 cells = assay: MTT cell viability assay, SCC4; assay type: cell-based, human
Method: as §1, §2, §3

[2] = tested on: Oral Tumor Cells (SCC9, SCC4); assay: MTT cell viability assay, average of OSCC lines SCC9 and SCC4; assay type: cell-based, human
Method: as §1, §2
IC50 values for the MTT assay were obtained by non-linear regression using GraphPad Prism 5.0 software (GraphPad, San Diego, CA, USA) from at least three independent experiments. […] The selectivity index was calculated as: S.I. = IC50 of the compound in fibroblasts/IC50 of the same compound in tumor cells.

mouse erythrocytes = tested on: mouse erythrocytes; set-up: method as in PMID 16163826; settings: cited from earlier work
[3] = Homo sapiens, SCC-9, 48 h treatment, MTT, read-out: SCC9 IC50
[4] = Homo sapiens, SCC-9, 48 h treatment, MTT, read-out: SCC9 IC50 (µg/mL)
[5] = Homo sapiens, SCC-9, 48 h treatment, MTT, N.D. = not determined, not toxic to SCC cells, read-out: SCC9 IC50 (class N.D.)
[6] = Homo sapiens, Fibroblast, read-out: Primary Gingival Fibroblast IC50
[7] = Homo sapiens, Fibroblast, read-out: Primary Gingival Fibroblast IC50 (µg/mL)
[8] = Homo sapiens, SCC-4, 48 h treatment, calculated as in Table 1, no cytotoxic effect in SCC4, read-out: SCC4 IC50 (class N.D.)

melting point [°C]	Structure (SMILES)	IC50 (SCC9 cells; [3]) [µM]	IC50 (SCC9 cells; [4]) [µg/mL]	IC50 (SCC9 cells; [5]) [µM]	IC50 [1, 6] [µM]	IC50 [1, 7] [µg/mL]	further results
	COc1cc(C(=O)O)cc(OC)c1OC [3,4,5-Trimethoxybenzoic acid]						cytotoxic activity against SCC9 cells (in words) (SCC9 cells): inactive; IC50 (SCC9 cells; Homo sapiens, SCC-9, 48 h, read-out: SCC9 IC50 (class N.D.)): > 1000 µM
	N.N.O=C([O-])C1(C(=O)[O-])CCC1.[Pt+2] [Carboplatin, reference compound]						SCC9 IC50 (SCC9 cells; 48 h treatment, MTT): 77.37 µg/mL; IC50 (SCC9 cells; 48 h treatment, MTT, read-out: SCC9 IC50): 208 µM; Primary Gingival Fibroblast IC50 [1]: 190.19 µg/mL; IC50 ([1]; read-out: Primary Gingival Fibroblast IC50): 512 µM; IC50 (SCC4 cells; 48 h treatment, read-out: SCC4 IC50): 175 µM; IC50 [2]: 192 µM
	COC(=O)c1cc(OC)c(OC)c(OC)c1 [Compound 1, Methyl 3,4,5–trimethoxybenzoate]	858	194				
53 to 54	CCOC(=O)c1cc(OC)c(OC)c(OC)c1 [Compound 2, Ethyl 3,4,5–trimethoxybenzoate]			> 1000			cytotoxic activity against SCC9 cells (in words) (SCC9 cells): no cytotoxic activity
34 to 35	CCCOC(=O)c1cc(OC)c(OC)c(OC)c1 [Compound 3, Propyl 3,4,5–trimethoxybenzoate]	299	76		1260	319	IC50 (SCC4 cells; [8]): > 1000 µM
	COc1cc(C(=O)OC(C)C)cc(OC)c1OC [Compound 4, Isopropyl 3,4,5–trimethoxybenzoate]	373	94.9		1800	456	IC50 (SCC4 cells; Homo sapiens, SCC-4, 48 h treatment, read-out: SCC4 IC50): 454 µM; IC50 ([2]; Homo sapiens): 376 µM
	CCCCOC(=O)c1cc(OC)c(OC)c(OC)c1 [Compound 5, Butyl 3,4,5–trimethoxybenzoate]	204	54.8		510	137	
	COc1cc(C(=O)OCCC(C)C)cc(OC)c1OC [Compound 6, Isopentyl 3,4,5–trimethoxybenzoate]	160	45.2		570	161	
	CCCCCOC(=O)c1cc(OC)c(OC)c(OC)c1 [Compound 7, Pentyl 3,4,5–trimethoxybenzoate]	258	72.7		418	118	
49 to 50	CCCCCCCCCCOC(=O)c1cc(OC)c(OC)c(OC)c1 [Compound 8, Decyl 3,4,5–trimethoxybenzoate]	955	337				
104 to 105	COc1cc(C(=O)OCc2ccc(Br)cc2)cc(OC)c1OC [Compound 10, 4-Bromo-benzyl 3,4,5–trimethoxybenzoate]			> 1000			cytotoxic activity against SCC9 cells (in words) (SCC9 cells): no cytotoxic activity
84 to 85	COc1cc(C(=O)OCc2ccc3ccccc3c2)cc(OC)c1OC [Compound 11, 2-Methylnaphthalene 3,4,5–trimethoxybenzoate]	310	109		3410	1200	
57 to 58	COc1cc(C(=O)OC(c2ccccc2)c2ccccc2)cc(OC)c1OC [Compound 12, Diphenyl 3,4,5–trimethoxybenzoate]	830	314				
115 to 116	CCCCNC(=O)c1cc(OC)c(OC)c(OC)c1 [Compound 13, N-Butyl-3,4,5–trimethoxybenzamide]	469	125		2360	631	IC50 (SCC4 cells; [8]): > 1000 µM
118 to 119	COc1cc(C(=O)NCC(C)C)cc(OC)c1OC [Compound 14, N-Isobutyl-3,4,5–trimethoxybenzamide]			> 1000			
179 to 180	COc1cc(C(=O)NC2CCCCC2)cc(OC)c1OC [Compound 15, N-Cyclohexyl-3,4,5–trimethoxybenzamide]			> 1000			
227 to 229	COc1cc(C(=O)NCc2ccc(O)cc2)cc(OC)c1OC [Compound 16, N-4-Hydroxybenzyl-3,4,5–trimethoxybenzamide]			> 1000			
138 to 139	COc1cc(C(=O)NCc2ccccc2)cc(OC)c1OC [Compound 17, N-Benzyl-3,4,5–trimethoxybenzamide]			> 1000			
131 to 132	COc1cc(C(=O)NCc2ccc(F)cc2)cc(OC)c1OC [Compound 18, N-(4-Fluorobenzyl)-3,4,5–trimethoxybenzamide]			> 1000			cytotoxic activity against SCC9 cells (in words) (SCC9 cells): inactive
157 to 158	COc1cc(C(=O)NCc2ccc(Cl)cc2)cc(OC)c1OC [Compound 19, N-4-Chlorobenzyl-3,4,5–trimethoxybenzamide]			> 1000			
	COc1cc(/C=C/C(=O)N2CCC=CC2=O)cc(OC)c1OC [piplartine]						hemolytic activity (mouse erythrocytes): did not reveal hemolytic activity
